According to ChEMBL document CHEMBL1201862, “PubChem BioAssay data set” (2004):
Active and inactive are the calls of the source.

Columns and labels:
[1] = system: HEK293; experiment: cells; assay type: functional, cell-based; conditions: Homo sapiens
[2] = target: T1, Nuclear receptor subfamily 0 group B member 1 (Homo sapiens, UniProt P51843); experiment: Luminescence-based cell-based high throughput dose response assay for inhibitors of the orphan nuclear receptor subfamily 0, group B, member 1 (DAX1; NR0B1). [Related pubchem assays (depositor defined):AID504766, AID504790]; assay type: functional
T1 sequence (P51843 whole entry): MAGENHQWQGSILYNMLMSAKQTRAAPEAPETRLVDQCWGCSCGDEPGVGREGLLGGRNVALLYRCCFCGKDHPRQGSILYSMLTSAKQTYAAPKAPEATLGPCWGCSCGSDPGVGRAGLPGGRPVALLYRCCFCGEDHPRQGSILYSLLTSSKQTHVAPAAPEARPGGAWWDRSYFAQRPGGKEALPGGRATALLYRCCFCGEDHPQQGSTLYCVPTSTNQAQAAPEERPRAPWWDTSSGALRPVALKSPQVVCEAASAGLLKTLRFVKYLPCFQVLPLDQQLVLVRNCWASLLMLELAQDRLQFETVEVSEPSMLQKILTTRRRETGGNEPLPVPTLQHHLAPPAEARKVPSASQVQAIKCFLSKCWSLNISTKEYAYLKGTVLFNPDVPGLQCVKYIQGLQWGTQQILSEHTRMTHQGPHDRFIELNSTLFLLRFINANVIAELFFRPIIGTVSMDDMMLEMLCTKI

[3] = target: T2, Cytochrome P450 2C9 (Homo sapiens, UniProt P11712)
[4] = target: Cytochrome P450 3A4 (Homo sapiens, UniProt P08684);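 further: CYP3A4 tested as one member of a cytochrome P450 panel screen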
[5] = cells; assay type: functional
[6] = target: T3, Sentrin-specific protease 8 (Homo sapiens, UniProt Q96LD8); assay type: functional
T3 sequence (Q96LD8 whole entry): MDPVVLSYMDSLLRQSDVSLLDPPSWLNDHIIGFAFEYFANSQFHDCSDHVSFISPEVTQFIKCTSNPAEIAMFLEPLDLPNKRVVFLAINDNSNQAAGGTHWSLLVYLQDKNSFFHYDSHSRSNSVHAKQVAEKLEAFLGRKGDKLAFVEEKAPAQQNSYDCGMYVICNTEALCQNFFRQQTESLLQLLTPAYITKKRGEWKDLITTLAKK

[7] = target: SUMO E1/E2 (Homo sapiens, UniProt P63279+Q9UBE0+Q9UBT2); experiment: SAR analysis of SUMOylation using HTRF in an in-Vitro dose response assay. [Related pubchem assays (depositor defined):AID2006, AID2011, AID2018, AID2069, AID2658]; assay type: functional
[8] = target: T4, Protein RecA (Mycobacterium tuberculosis, UniProt P9WHJ3); experiment: Fluorescence Cell-Free Homogeneous Dose Retest to Identify Inhibitors of RecA-Intein Splicing Activity. [Related pubchem assays (depositor defined):AID2097, AID2223, AID489010, AID492950]; assay type: functional
T4 sequence (P9WHJ3 whole entry): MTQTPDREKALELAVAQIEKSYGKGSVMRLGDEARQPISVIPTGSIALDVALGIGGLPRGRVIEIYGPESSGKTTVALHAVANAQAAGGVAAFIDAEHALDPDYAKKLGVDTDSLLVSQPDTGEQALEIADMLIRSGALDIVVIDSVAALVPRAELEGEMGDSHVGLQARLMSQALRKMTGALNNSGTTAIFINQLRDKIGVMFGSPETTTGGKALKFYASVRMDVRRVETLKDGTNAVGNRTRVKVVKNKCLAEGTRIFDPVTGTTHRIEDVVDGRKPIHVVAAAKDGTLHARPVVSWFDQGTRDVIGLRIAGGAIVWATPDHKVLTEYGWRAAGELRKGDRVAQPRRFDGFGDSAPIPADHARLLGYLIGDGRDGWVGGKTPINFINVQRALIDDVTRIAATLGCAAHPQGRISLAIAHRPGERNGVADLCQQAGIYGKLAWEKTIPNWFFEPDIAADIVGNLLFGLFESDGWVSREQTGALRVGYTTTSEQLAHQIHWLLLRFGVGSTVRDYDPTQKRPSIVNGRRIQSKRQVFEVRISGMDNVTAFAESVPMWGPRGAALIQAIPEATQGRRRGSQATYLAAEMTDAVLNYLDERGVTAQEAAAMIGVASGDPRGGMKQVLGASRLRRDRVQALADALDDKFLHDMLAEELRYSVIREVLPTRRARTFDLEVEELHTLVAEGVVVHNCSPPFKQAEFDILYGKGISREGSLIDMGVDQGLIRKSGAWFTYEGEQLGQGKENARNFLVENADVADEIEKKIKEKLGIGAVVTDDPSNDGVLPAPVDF

[9] = target: T3, Sentrin-specific protease 8; assay type: functional; remark: listed apart in the source
[10] = target: T5, Replicative DNA helicase DnaB (Mycobacterium tuberculosis, UniProt P9WMR3); experiment: DnaB intein splicing inhibitors, dose response, biochemical, cell-free fluorescence (AID 449749); assay type: functional
T5 sequence (P9WMR3 whole entry): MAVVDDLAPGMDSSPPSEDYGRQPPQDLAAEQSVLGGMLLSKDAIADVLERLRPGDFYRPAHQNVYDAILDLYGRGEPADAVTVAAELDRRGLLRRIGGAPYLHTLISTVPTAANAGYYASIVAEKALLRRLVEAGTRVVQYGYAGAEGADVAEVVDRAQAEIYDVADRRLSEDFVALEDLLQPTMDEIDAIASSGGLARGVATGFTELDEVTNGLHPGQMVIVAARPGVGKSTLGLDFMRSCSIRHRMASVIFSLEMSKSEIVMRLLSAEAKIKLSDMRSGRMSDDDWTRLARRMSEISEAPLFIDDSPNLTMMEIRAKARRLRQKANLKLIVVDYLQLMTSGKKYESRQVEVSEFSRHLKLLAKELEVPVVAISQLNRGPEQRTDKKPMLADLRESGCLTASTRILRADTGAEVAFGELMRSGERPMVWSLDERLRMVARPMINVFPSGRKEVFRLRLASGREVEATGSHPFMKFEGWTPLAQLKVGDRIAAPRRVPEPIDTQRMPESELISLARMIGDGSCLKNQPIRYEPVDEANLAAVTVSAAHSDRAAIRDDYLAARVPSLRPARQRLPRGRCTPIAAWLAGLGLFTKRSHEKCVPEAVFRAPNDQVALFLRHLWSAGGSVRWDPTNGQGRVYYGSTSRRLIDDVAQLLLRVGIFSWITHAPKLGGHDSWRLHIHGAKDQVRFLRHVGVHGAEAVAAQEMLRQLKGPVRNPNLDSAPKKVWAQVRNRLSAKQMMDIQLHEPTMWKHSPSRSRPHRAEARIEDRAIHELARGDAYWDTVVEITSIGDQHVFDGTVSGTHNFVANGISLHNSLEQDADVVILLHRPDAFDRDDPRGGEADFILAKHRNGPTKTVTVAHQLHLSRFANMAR

[11] = target: Genome polyprotein (dengue virus type 2, UniProt P29990); experiment: flavivirus cap methylation enzyme inhibition – biochemical, confirmation dose response, primary screen (AID 588689); assay type: functional
[12] = target: T2, Cytochrome P450 2C9; remark: listed apart in the source
[13] = target: Cytochrome P450 2C19 (Homo sapiens, UniProt P33261); experiment: Cytochrome panel assay with activity outcomes. Panel member name: p450-cyp2c19 Compounds with AC50 equal or less than 10 uM are considered active; assay type: functional; conditions: read-out: AC50
[14] = target: T6, Endoribonuclease toxin MazF (Escherichia coli K-12, UniProt P0AE70); experiment: substrate-only fluorescence increase artefacts – biochemical, single-stranded RNase substrate, counter-screen for MazEF activator project, dose response (AID 588502); assay type: functional
T6 sequence (P0AE70 whole entry): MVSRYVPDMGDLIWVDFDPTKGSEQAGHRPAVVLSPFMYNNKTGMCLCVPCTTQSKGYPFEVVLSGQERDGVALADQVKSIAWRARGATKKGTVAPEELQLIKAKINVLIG

[15] = target: T6, Endoribonuclease toxin MazF; experiment: activation of MazEF endoribonuclease cleavage – biochemical, fluorescence, single-stranded RNA substrate, uHTS hits, dose response (AID 588481); assay type: functional
[16] = luciferase reporter signal suppression in cells – H4 neuroglioma cells, luminescence, dose response (AID 1990); assay type: functional, cell-based
[17] = alpha-synuclein stem-loop luciferase translation blockers – H4 neuroglioma cells, luminescence, confirmation (AID 1988); assay type: functional, cell-based
[18] = Luminescence Cell-Based Dose Response HTS to Identify Inhibitors of 5'UTR Stem-Loop Driven Prion Protein mRNA Translation in H4 Neuroglioblastoma Cells. [Related pubchem assays: 1827 (Project Summary), 1813 (Primary HTS)]; assay type: functional
[19] = target: T7, Zinc finger protein mex-5 (Caenorhabditis elegans, UniProt Q9XUB2); experiment: potency of MEX-5 RNA-binding blockers – biochemical, C. elegans, fluorescence polarization, dose response (AID 1960)
T7 sequence (Q9XUB2 whole entry): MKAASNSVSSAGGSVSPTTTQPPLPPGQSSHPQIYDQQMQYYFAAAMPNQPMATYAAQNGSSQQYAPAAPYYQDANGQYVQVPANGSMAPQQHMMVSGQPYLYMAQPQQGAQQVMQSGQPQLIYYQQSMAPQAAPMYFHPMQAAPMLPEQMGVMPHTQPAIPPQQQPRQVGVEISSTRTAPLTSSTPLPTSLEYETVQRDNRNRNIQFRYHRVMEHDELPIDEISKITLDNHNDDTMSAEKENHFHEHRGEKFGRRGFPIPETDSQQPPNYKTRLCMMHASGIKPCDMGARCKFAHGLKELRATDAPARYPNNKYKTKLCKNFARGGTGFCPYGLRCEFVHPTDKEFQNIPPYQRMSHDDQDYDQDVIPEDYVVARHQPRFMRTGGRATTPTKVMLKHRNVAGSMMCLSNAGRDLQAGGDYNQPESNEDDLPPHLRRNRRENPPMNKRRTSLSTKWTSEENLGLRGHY

[20] = target: T8, RNA-binding protein pos-1 (Caenorhabditis elegans, UniProt G5EF15); experiment: disruptors of C. elegans POS-1 RNA interaction – biochemical, fluorescence polarization, dose response (AID 1964);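 further: purified POS-1 fused to maltose binding protein made in E. coli; potency of compounds blocking POS-1 binding to fluorescent RNA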
T8 sequence (G5EF15 whole entry): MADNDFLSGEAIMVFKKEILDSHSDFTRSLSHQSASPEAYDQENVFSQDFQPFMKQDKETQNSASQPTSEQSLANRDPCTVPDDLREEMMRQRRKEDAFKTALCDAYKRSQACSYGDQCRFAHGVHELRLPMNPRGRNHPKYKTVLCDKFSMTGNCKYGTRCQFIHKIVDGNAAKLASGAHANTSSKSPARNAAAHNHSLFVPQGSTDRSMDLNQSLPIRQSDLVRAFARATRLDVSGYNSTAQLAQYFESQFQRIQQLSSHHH

[21] = target: Dual specificity tyrosine-phosphorylation-regulated kinase 1A (Rattus norvegicus, UniProt Q63470); assay type: biochemical, Homo sapiens
[22] = target: FAD-linked sulfhydryl oxidase ALR (Homo sapiens, UniProt P55789); experiment: ALR-catalysed DTT oxidation blockers – biochemical, H2O2 detection, luminescence, cherry-pick, dose response (AID 493248)
[23] = system: Streptococcus sp. 'group A'; experiment: Streptococcus pyogenes SK(-)GAS viability under kanamycin – luminescence, BacTiterGlo, confirmation, counter-screen for streptokinase expression inhibitor project, dose response (AID 1900); assay type: functional, organism-based
[24] = target: Dual specificity protein kinase CLK1 (Homo sapiens, UniProt P49759); experiment: inhibition of human CLK1 activity – biochemical, cherry-picked samples, selectivity assay for Dyrk1A inhibitor project, dose response (AID 588811)
[25] = system: Streptococcus; experiment: GAS UMAA2166 growth inhibition – luminescence, BacTiterGlo, counter-screen for streptokinase expression inhibitor project, dose response (AID 1915); assay type: functional, organism-based;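 further: potency for reduction of bacterial viability or growth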

Sequence of Cytochrome P450 3A4 (P08684 whole entry): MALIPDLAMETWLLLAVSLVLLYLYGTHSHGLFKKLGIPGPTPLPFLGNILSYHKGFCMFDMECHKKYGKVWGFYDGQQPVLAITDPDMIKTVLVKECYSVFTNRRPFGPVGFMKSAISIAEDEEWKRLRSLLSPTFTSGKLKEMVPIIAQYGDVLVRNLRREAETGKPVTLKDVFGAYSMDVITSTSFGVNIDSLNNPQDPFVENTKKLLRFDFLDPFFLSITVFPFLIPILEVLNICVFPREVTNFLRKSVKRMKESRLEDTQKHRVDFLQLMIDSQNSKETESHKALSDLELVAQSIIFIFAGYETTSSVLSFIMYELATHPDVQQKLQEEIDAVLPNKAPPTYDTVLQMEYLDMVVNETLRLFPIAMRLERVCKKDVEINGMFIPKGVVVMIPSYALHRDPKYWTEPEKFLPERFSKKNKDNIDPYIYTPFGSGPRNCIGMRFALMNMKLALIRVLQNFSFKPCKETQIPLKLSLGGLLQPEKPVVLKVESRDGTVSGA
T2 sequence (P11712 whole entry): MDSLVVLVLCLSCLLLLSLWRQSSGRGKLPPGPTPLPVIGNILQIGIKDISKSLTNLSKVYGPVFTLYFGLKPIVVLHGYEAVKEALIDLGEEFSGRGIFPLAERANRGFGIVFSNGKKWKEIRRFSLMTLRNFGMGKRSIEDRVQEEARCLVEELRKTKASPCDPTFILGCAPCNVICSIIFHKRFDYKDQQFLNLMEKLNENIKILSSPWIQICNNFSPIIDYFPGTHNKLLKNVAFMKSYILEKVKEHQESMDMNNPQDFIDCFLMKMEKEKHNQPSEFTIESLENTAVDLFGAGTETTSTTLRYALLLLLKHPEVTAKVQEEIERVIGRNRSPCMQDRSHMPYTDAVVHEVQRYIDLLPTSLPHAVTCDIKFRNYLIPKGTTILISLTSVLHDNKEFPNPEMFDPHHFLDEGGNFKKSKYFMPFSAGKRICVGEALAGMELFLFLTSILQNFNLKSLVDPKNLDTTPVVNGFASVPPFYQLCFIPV
Sequence of FAD-linked sulfhydryl oxidase ALR (P55789 whole entry): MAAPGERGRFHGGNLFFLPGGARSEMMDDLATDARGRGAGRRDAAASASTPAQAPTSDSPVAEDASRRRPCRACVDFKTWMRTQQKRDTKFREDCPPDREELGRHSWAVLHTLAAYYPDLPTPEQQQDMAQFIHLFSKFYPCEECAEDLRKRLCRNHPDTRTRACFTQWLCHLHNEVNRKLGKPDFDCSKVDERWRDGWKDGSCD
Sequence of Genome polyprotein (P29990 2492-3391 limits assumed): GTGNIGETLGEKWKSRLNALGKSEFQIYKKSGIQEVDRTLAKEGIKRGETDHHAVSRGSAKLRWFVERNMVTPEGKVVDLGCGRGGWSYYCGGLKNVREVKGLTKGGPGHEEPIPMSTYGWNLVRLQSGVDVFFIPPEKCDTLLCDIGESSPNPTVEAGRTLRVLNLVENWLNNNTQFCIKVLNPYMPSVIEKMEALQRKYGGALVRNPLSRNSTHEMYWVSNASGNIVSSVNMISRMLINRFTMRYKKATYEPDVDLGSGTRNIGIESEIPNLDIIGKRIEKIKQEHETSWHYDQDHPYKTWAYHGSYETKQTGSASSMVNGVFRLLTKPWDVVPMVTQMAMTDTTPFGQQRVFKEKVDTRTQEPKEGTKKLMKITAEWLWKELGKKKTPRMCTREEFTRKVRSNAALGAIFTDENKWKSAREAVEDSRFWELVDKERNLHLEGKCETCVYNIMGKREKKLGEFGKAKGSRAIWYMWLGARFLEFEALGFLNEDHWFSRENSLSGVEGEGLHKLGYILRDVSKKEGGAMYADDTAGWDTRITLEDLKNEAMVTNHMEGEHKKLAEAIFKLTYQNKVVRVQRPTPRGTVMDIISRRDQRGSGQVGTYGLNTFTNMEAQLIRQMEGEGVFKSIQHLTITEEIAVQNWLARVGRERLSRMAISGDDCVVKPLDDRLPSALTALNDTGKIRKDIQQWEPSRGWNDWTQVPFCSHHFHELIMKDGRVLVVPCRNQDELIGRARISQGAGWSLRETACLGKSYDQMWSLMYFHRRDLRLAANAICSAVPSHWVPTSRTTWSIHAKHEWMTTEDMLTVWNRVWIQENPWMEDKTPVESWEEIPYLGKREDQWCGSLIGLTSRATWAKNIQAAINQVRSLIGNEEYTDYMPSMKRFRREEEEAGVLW
Sequence of Cytochrome P450 2C19 (P33261 whole entry): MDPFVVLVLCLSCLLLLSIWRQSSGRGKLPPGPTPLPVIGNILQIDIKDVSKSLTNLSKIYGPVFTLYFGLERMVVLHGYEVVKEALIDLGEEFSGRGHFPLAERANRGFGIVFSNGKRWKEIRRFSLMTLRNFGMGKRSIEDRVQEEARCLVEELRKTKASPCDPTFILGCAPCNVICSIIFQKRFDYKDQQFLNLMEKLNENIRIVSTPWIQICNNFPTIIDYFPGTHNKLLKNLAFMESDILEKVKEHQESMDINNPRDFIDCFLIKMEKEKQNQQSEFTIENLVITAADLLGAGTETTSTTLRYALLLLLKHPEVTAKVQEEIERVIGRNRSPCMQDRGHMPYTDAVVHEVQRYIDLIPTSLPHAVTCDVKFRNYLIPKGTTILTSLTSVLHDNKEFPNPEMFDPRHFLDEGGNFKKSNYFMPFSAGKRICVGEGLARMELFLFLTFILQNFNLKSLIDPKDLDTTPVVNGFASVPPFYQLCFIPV
Sequence of Dual specificity protein kinase CLK1 (P49759 whole entry): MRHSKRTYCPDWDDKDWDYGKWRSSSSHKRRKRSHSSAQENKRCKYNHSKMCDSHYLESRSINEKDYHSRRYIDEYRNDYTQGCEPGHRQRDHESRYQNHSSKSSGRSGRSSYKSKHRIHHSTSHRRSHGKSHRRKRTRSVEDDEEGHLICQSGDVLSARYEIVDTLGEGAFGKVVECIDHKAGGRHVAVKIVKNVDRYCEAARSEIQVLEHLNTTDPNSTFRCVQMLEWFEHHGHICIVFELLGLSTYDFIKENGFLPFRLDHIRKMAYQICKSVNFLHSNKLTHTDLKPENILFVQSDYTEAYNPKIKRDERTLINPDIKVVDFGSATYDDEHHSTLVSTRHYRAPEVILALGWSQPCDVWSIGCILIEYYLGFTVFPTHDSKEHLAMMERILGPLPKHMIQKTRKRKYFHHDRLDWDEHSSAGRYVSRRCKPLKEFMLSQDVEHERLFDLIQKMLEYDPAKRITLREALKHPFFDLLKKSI
Sequence of SUMO E1/E2 (Q9UBE0 whole entry): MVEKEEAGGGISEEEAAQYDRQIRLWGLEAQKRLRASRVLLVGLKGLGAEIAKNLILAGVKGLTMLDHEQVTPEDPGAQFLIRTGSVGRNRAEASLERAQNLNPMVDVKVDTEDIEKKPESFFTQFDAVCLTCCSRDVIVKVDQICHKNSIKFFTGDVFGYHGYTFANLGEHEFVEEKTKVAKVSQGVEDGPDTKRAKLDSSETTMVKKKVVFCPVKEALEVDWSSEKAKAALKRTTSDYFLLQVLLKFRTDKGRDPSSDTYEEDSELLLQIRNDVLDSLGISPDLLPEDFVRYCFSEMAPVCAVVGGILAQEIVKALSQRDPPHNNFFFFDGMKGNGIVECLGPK
Sequence of SUMO E1/E2 (Q9UBT2 whole entry): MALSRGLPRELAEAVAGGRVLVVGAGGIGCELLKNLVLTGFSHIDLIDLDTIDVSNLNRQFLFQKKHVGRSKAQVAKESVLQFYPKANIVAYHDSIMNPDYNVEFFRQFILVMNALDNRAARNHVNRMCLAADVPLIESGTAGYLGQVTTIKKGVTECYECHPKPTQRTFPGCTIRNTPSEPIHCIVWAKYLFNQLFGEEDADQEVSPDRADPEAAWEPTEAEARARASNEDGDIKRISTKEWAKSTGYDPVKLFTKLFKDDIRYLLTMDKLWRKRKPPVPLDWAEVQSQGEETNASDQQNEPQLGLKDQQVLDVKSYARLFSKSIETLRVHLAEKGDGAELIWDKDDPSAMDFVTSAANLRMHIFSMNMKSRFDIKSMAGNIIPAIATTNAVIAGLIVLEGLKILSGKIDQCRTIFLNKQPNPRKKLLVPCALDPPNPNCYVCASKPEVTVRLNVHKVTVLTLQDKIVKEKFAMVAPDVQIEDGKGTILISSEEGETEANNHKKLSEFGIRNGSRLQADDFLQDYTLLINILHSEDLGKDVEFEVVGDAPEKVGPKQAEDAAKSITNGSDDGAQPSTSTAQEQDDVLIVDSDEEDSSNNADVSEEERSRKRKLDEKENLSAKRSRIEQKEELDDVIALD
Sequence of SUMO E1/E2 (P63279 whole entry): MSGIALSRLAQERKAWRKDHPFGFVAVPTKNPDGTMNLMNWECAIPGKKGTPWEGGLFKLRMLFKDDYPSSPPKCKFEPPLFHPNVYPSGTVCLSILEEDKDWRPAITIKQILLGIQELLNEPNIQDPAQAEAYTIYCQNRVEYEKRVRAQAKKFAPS

CCn1c(=O)c(C(=O)NNS(=O)(=O)c2ccc(Br)cc2)c(O)c2ccccc21
IC50 [1]: > 67.6 µM (inactive) | IC50 [2]: > 67.6 µM (inactive)

O=C(c1ccco1)N1CCC2(CC1)CCN(C(c1ccccc1)c1ccccc1)CC2
AC50 [3]: 39.8 µM (inconclusive) | AC50 [4]: inconclusive

Cc1n[nH]c(O)c1C(c1ccc(-c2ccc(F)cc2)o1)c1c(C)n[nH]c1O
IC50 [5]: 41.6 µM (active) | IC50 [6]: 14 µM (active) | IC50 [7]: > 100 µM (inactive) | EC50 [8]: 0.297 µM (active) | IC50 [9]: 12.3 µM (active) | AC50 [10]: 0.321 µM (active) | IC50 [11]: 58.1 µM (active)

CC(=O)OCc1nc2ccccc2s1
AC50 [4]: inconclusive | AC50 [12]: inconclusive | AC50 [13]: 25.1 µM (inconclusive)

COc1ccc(-c2noc(-c3ccoc3C)n2)cc1
IC50 [1]: > 67.6 µM (inactive) | IC50 [2]: > 67.6 µM (inactive)

Cn1cccc1/C=C1\SC(=O)N(c2ccc(O)cc2)C1=O
EC50 [14]: 29.2 µM (inactive) | EC50 [15]: > 99 µM (inactive)

CCOC(=O)CN1C(=O)Nc2ccc(Br)cc2C1c1ccccc1 (centres undefined)
AC50 [4]: inconclusive

Cc1c(N/C=C2/C(=O)N(C)C(=O)c3ccccc32)c(=O)n(-c2ccccc2)n1C
EC50 [16]: > 120 µM (not active) | EC50 [14]: 56.4 µM (inactive) | EC50 [17]: > 120 µM (not active) | EC50 [18]: > 120 µM (not active) | EC50 [15]: > 99 µM (inactive) | EC50 [19]: > 300 µM (inconclusive) | EC50 [20]: > 300 µM (not active)

Cc1cccc(-c2nc(Nc3ccc(O)cc3)c3ccccc3n2)c1
AC50 [21]: 1.1 µM (active)

Cc1noc(NS(=O)(=O)c2ccc(NC(=O)c3oc4ccc(Cl)cc4c3C)cc2)c1C
AC50 [21]: 6.88 µM (active) | AC50 [22]: 0.626 µM (active) | EC50 [23]: 8.14 µM (active) | AC50 [24]: 10 µM (active) | EC50 [25]: 36.9 µM (active)

COc1ccc(C(=O)Nc2nc(C)c(C(C)=O)s2)cc1S(=O)(=O)N1CCOCC1
EC50 [14]: > 99 µM (inactive) | EC50 [15]: > 99 µM (inactive)
